Reference: the Kinase Knowledgebase extract (Sharma et al. 2016)
pIC50: −log10 of the molar value.

Biological target: PIK3CA (human) (UniProt P42336)
Experiment: Assessment of PIK3CA Kinase Activity

PIK3CA (human), sequence (P42336 whole entry, looked up): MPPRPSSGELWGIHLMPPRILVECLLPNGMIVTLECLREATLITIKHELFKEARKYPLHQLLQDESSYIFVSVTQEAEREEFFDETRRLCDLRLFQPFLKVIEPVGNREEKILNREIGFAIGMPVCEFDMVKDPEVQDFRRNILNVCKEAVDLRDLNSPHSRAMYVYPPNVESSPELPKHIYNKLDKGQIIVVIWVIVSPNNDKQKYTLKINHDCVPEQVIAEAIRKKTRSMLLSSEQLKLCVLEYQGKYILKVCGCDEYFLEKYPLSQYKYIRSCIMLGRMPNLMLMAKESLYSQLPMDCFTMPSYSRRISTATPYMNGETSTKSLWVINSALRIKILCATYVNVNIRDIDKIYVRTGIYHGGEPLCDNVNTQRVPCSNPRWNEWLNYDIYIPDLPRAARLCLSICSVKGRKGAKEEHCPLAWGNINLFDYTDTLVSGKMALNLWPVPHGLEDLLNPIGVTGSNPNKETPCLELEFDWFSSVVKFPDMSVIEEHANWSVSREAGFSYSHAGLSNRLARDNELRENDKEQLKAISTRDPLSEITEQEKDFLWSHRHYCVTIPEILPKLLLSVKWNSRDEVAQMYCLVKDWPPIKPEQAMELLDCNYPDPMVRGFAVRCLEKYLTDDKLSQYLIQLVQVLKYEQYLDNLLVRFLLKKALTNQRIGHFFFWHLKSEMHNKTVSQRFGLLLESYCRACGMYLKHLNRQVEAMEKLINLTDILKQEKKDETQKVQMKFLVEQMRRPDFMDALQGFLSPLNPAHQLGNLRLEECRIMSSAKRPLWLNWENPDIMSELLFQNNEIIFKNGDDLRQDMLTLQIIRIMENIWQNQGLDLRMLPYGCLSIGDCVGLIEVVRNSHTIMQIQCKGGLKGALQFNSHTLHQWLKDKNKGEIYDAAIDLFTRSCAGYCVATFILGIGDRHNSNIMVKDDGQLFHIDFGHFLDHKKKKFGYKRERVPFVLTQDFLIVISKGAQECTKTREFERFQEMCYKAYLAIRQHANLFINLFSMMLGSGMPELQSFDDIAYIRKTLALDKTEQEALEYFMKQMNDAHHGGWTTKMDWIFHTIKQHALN

Row | pIC50 | Compound
1 | > 7.00 | CC(=O)Nc1nc2ccc(-c3cnc(N)cn3)cc2s1
2 | 6.00 to 7.00 | CC(=O)Nc1nc2ccc(-c3cnc(Cl)c(NS(=O)(=O)C4CC4)c3)nc2s1
3 | 6.00 to 7.00 | CC(=O)Nc1nc2cnc(-c3ccc(N)nc3)nc2s1
4 | > 7.00 | CC(=O)Nc1nc2ccc(-c3ccc(-c4nnc[nH]4)cc3)nc2s1
5 | 6.00 to 7.00 | CC(=O)Nc1nc2ccc(-c3ccncc3)nc2s1
6 | 6.00 to 7.00 | CC(=O)Nc1nc2cnc(-c3cnc(Cl)c(N)c3)nc2s1
7 | 6.00 to 7.00 | CNC(=O)c1cccc(-c2ccc3nc(NC(C)=O)sc3c2)c1
8 | > 7.00 | CCS(=O)(=O)Nc1cc(-c2ccc3nc(NC(C)=O)sc3n2)cnc1Cl
9 | > 7.00 | CC(=O)Nc1nc2ccc(-c3ccc4nccn4c3)nc2s1
10 | 6.00 to 7.00 | CC(=O)Nc1nc2ccc(-c3ccc4[nH]ccc4c3)nc2s1
11 | 6.00 to 7.00 | CC(=O)Nc1nc2ccc(-c3ccc(C#N)nc3)nc2s1
12 | 6.00 to 7.00 | CC(=O)Nc1nc2ccc(-c3ccc(N)cc3)cc2s1
13 | > 7.00 | CONC(=O)c1cccc(-c2ccc3nc(NC(C)=O)sc3n2)c1
14 | > 7.00 | CNC(=O)c1ccc(-c2ccc3nc(NC(C)=O)sc3n2)cn1
15 | > 7.00 | CNC(=O)c1ccc(-c2ccc3nc(NC(C)=O)sc3n2)cc1
16 | 6.00 to 7.00 | CC(=O)Nc1ccc(-c2ccc3nc(NC(C)=O)sc3n2)cc1

Row | pIC50 | Compound
17 | > 7.00 | CC(=O)Nc1nc2ccc(-c3cnc(Cl)c(NS(=O)(=O)c4ccccc4)c3)nc2s1
18 | 6.00 to 7.00 | CC(=O)Nc1nc2ccc(-c3ccc4[nH]cc(C(N)=O)c4c3)cc2s1
19 | > 7.00 | CC(=O)Nc1nc2ccc(-c3ccc4[nH]ncc4c3)nc2s1
20 | > 7.00 | CS(=O)(=O)Nc1cc(-c2ccc3nc(NC(=O)C4CC4)sc3n2)cnc1Cl
21 | > 7.00 | CC(=O)Nc1nc2ccc(-c3cnc(Cl)c(NS(C)(=O)=O)c3)cc2s1
22 | > 7.00 | CC(=O)Nc1nc2cnc(-c3cnc(Cl)c(NS(C)(=O)=O)c3)nc2s1
23 | > 7.00 | CC(=O)Nc1nc2cnc(-c3cnc(N)c(C(F)(F)F)c3)nc2s1
24 | > 7.00 | CC(=O)Nc1nc2ccc(-c3ccc4[nH]cc(C=O)c4c3)cc2s1
25 | 6.00 to 7.00 | CC(=O)Nc1ccc(-c2ccc3nc(NC(C)=O)sc3n2)cn1
26 | > 7.00 | CONC(=O)c1ccc(-c2ccc3nc(NC(C)=O)sc3n2)cc1
27 | > 7.00 | CC(=O)Nc1nc2ccc(-c3cnc4cc[nH]c4c3)nc2s1
28 | 6.00 to 7.00 | CC(=O)Nc1nc2ccc(-c3ccccc3N)nc2s1
29 | > 7.00 | CC(=O)Nc1nc2ccc(-c3cnc(Cl)c(NS(C)(=O)=O)c3)nc2s1
30 | 6.00 to 7.00 | CC(=O)Nc1nc2ccc(-c3ccc4[nH]ccc4c3)cc2s1
31 | > 7.00 | CC(=O)Nc1nc2ccc(-c3cnc4[nH]ccc4c3)nc2s1
32 | > 7.00 | CC(=O)Nc1nc2ccc(-c3ccc4c(c3)CC(=O)N4)nc2s1
